Measured values as given in article PMC10002220, “In Vivo Reversal of P-Glycoprotein-Mediated Drug Resistance in a Breast Cancer Xenograft and in Leukemia Models Using a Novel, Potent, and Nontoxic Epicatechin EC31” (International Journal of Molecular Sciences, 2023).
Read-outs that look alike come from different tables or passages of the source.

Legend:
P-gp [1] = tested on: P-gp; parameters: method as in PMID 25985195, PMID 34597896; settings: cited from earlier work
[2] = In vivo toxicity study of EC31 alone and combined with PTX; settings: q2d x 12
Protocol: (§1) (A) In vivo toxicity study of EC31 alone and of its combination with PTX was conducted. BALB/c mice were randomized into five groups with five mice in each group. Body weight of BALB/c mice during treatments was measured every two days. The treatment groups included (1) solvent control (5% NMP + 5% Cremophor EL + 90% PBS to dissolve EC31 and 5% Ethanol + 5% Cremophor EL + 90% PBS to dissolve PTX), (2) PTX (12 mg/kg i.v.), (3) EC31 (30 mg/kg i.p.), (4) EC31 (30 mg/kg i.p.) + PTX (12 mg/kg i.v.), or (5) EC31 (60 mg/kg i.p.) + PTX (12 mg/kg i.v.). The administration was performed every other day 12 times (q2d x 12). The loss of body weight or appetite and treatment-related mortality were monitored and defined as toxicity. (B) BALB/c nude mice were subcutaneously xenografted with LCC6MDR. When the tumor reached 150–300 mm^3, the mice were randomized and administered once with (1) EC31 alone, (2) PTX alone, or (3) EC31 + PTX. […] The tumors were taken out, and their weights were measured. Intratumor concentration of EC31 or PTX was measured using UPLC-MS/MS, and the actual concentration of PTX or EC31 was normalized to the tumor weight. […] Tumor volume and body weight were monitored throughout the treatment period. […] The tumor volume, tumor weight, and doubling time were measured. The number of animal deaths was recorded during the treatment period. […]

P-gp [3] = molecular target: T1, P-gp (Homo sapiens, UniProt P08183); experiment: EC50 for reversing drug resistance in LCC6MDR cells (cell proliferation assay); settings: for EC50: EC50 for Reversing MDR, LCC6MDR
Source text: (§2) EC50 was defined as the concentration at which the modulator can reduce the IC50 of an anticancer drug by half in the P-gp-overexpressing cell lines. […] The P-gp-modulating activity of methylated catechin derivatives was further studied by measuring the EC50. […] Three P-gp-overexpressing cell lines were employed, including breast cancer cell line LCC6MDR, mouse leukemia cell line P388ADR, and human leukemia cell line K562/P-gp. The anticancer drugs tested included DOX, PTX, and VCR. All values were presented as mean ± standard error of mean. N = 3–6 independent experiments.
(§3) About 6500 cells of LCC6MDR or 10,000 cells of P388ADR or K562/P-gp were seeded to each well of 96-well plate and were then incubated at 37 °C overnight. […] Cell viability was determined using CellTiter 96 AQueous Assay (Promega, Madison, WI, USA, #G1111) as reported previously [38]. The % of cell survival, IC50 of anticancer drugs towards the cell line, and EC50 of modulators were analyzed using nonlinear regression in Prism 5.0.

P-gp [4] = molecular target: T1, P-gp; experiment: EC50 for reversing drug resistance in K562/P-gp cells (cell proliferation assay); settings: EC50 for Reversing MDR
Source text: as §2, §3

LCC6MDR xenograft = experiment: In vivo PTX and EC31 accumulation in LCC6MDR tumor
Protocol: as §1

[5] = Pharmacokinetics of methylated catechin derivatives in plasma; format: in vivo, BALB/c mice; settings: BALB/c, mouse; for AUC(0-inf): read-out: AUC0-infinity (converted)
Protocol: Figure 4 Pharmacokinetics of methylated catechin derivatives and their effects on the PK of PTX. BALB/c mice were i.v. injected with 10 mg/kg or i.p. injected with 30 mg/kg of modulators. At 10, 30, 60, 180, 420, 840, and 1080 min postadministration, animals were sacrificed to collect their blood, and then the plasma concentration of modulator was determined using UPLC-MS/MS. The % of bioavailability of each modulator injected through i.p. injection route was calculated by comparing it to its plasma level when injected via i.v. injection. […] (E) Pharmacokinetic (PK) profiles of 4 potent methylated catechin derivatives were summarized. (F) The effect of modulators (GC51, EC31, or C25) on the PK of PTX was firstly determined through i.p. injection of modulator at 30 mg/kg 1 h prior to i.v. injection of 12 mg/kg PTX. At 10, 30, 60, 120, 240, and 420 min postadministration of PTX, animals were sacrificed. Plasma level of PTX was quantified through LC/MSMS. The dashed line indicates the corresponding EC50 of modulator in vitro for reversing PTX resistance. […] There were 3 mice at each time point. All pharmacokinetic parameters were calculated with the pharmacokinetic software Summit® PK solution. Two-tailed test was conducted for the AUC value of PTX alone and cotreatment. […] N.S. = not significant. / = not applicable.
In group 1, BALB/c mice were injected intravenously (i.v.) with 10 mg/kg of modulator, and their blood was collected at 10, 30, 60, 120, 240, and 480 min postadministration. In group 2, BALB/c mice were injected intraperitoneally (i.p.) with 30 mg/kg of modulator, and their blood was collected at 10, 30, 60, 180, 420, 840, and 1080 min postadministration.
The pharmacokinetics of PTX was studied with or without the coadministered modulator. PTX (12 mg/kg i.v.) alone was injected into the BALB/c mice. For the combination study, modulator (30 mg/kg i.p.) was injected 1 h before injecting PTX (12 mg/kg i.v.). The blood was collected at 10, 30, 60, 120, 240, and 420 min after PTX administration. Blood samples were spun at 14,000 rpm for 10 min at 4 °C to collect plasma supernatant. Plasma concentration of methylated catechin derivatives or PTX was determined through UPLC-QQQ-MS as described in Section 4.9. Pharmacokinetic parameters were analyzed with PK Solutions 2.0 (Summit Research Service, Ashland, OH, USA).

T1 sequence (P08183 whole entry): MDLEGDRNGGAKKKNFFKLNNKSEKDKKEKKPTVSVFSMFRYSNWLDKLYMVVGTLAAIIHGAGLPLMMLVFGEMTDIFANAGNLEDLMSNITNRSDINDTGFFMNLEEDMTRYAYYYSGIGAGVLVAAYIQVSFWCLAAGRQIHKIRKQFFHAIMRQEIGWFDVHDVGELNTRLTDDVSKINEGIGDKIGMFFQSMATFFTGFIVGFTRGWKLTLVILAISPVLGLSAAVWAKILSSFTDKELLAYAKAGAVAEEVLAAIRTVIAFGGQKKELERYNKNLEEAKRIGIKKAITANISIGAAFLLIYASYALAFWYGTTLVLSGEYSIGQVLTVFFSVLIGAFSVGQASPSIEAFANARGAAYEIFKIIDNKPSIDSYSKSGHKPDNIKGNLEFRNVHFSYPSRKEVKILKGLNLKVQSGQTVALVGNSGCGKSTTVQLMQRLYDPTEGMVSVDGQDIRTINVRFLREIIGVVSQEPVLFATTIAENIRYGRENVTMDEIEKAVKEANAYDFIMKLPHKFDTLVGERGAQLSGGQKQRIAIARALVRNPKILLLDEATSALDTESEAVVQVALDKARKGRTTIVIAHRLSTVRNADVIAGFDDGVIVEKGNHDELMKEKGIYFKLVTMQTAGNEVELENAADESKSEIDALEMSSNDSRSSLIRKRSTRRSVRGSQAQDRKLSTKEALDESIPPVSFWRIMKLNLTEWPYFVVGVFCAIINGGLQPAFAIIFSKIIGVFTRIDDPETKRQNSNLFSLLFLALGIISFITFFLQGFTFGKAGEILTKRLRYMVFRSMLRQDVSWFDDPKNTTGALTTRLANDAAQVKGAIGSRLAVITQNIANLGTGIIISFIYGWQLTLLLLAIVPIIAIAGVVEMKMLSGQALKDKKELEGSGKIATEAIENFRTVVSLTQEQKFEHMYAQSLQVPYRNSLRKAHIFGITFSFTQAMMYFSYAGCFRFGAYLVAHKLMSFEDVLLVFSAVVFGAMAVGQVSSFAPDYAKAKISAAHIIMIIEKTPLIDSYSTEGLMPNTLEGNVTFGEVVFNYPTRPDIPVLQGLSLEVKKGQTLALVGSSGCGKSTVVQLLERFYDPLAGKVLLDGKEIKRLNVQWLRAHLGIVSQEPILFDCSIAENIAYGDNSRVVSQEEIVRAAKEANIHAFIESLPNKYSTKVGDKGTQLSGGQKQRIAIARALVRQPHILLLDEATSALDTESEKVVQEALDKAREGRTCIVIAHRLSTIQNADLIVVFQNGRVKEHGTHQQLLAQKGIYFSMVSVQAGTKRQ

## COc1cc(OC)c2c(c1)O[C@H](c1ccc(OC)c(OC)c1)[C@H](OC(=O)c1ccc(F)c(NC(=O)c3cc(OC)c(OC)c(OC)c3)c1)C2 [EC31]
P-gp [1]
  effect on plasma membrane level of P-gp: did not affect
[2]; EC31 30 mg/kg i.p. alone
  mortality or toxicity symptoms: did not cause any mortality or toxicity symptoms
[2]; EC31 30 or 60 mg/kg i.p. + PTX 12 mg/kg i.v.
  body weight loss: ≤ 15%
P-gp [3]; DOX Resistance, concentration that reduces IC50 of DOX by half
  EC50: 159 ± 21 nM
P-gp [3]; PTX Resistance, concentration that reduces IC50 of PTX by half
  EC50: 94 ± 21 nM
P-gp [3]; reversing PTX resistance in LCC6MDR
  fold lower EC50 than that of verapamil: about 4.7 fold
P-gp [4]; DOX Resistance, K562/P-gp, concentration that reduces IC50 of DOX by half
  EC50: 93 ± 33 nM
P-gp [4]; VCR Resistance, K562, concentration that reduces IC50 of VCR by half, column head prints K562
  EC50: 37 ± 10 nM
LCC6MDR xenograft; EC31 30 mg/kg i.p. + PTX 12 mg/kg i.v., at 180 min
  increase of intratumor PTX level compared to PTX alone: 6 fold
LCC6MDR xenograft; EC31 alone 30 mg/kg i.p., LCC6MDR xenograft
  time intratumor EC31 is maintained above its in vitro EC50 (94 nM): 420 min
[5]; ip, 30 mg/kg
  AUC(0-t): 17800 ng·h/mL
  Cmax: 5610 ng/mL
  Tmax: 1 h
  half-life: 3.33 h
  AUC(0-inf): 18400 ng·h/mL
[5]; iv, 10 mg/kg
  AUC(0-t): 7240 ng·h/mL
  half-life: 0.912 h
  AUC(0-inf): 7290 ng·h/mL
